ChEMBL document CHEMBL3885861, “Open TG-GATES”

Species on record: Rattus norvegicus
Test: Open TG-GATES - Regimen: Single
Format: toxicity, organism-based, Sprague-Dawley
Parameters: regimen Single, gender Male, age 6 weeks
Conditions: in vivo, po, 150 mg/kg, route gavage, dose level High; for APTT / Bas / Eos / Fbg / Hb / Ht / Lym / MCH / MCHC / MCV / Mono / Neu / PT / Plat / RBC / Ret / WBC: tissue Blood; for KIDNEY_L / KIDNEY_R / KIDNEY_TOTAL: tissue Kidney; for LIVER: tissue Liver; for A/G / ALP / ALT / AST / BUN / CRE / Ca / Cl / DBIL / GLC / IP / K / LDH / Na / PL / RALB / TBIL / TC / TG / TP / gamma-GTP: tissue Plasma

## CC(C)C(=O)Nc1ccc([N+](=O)[O-])c(C(F)(F)F)c1 [FLUTAMIDE]
3 h
  TERMINAL_BW: 210.6 g
  APTT: 19.7 s
  Bas: 0%
  Eos: 0.8%
  Fbg: 220.4 mg/dL
  Hb: 13.3 g/dL
  Ht: 38.7%
  Lym: 75%
  MCH: 21.5 pg
  MCHC: 34.4%
  MCV: 62.6 fL
  Mono: 3.6%
  Neu: 19.8%
  PT: 13 s
  Plat: 121.6 x10_4/uL
  RBC: 617.2 x10_4/ul
  Ret: 7.5%
  WBC: 89.1 x10_2/uL
  KIDNEY_L: 0.9 g
  KIDNEY_R: 0.9 g
  KIDNEY_TOTAL: 1.8 g
  LIVER: 9.3 g
  A/G: 1.4
  ALP: 936.4 IU/L
  ALT: 35.4 IU/L
  AST: 69.8 IU/L
  BUN: 9.4 mg/dL
  CRE: 0.4 mg/dL
  Ca: 10.6 mg/dL
  Cl: 102.8 meq/L
  DBIL: 0.1 mg/dL
  GLC: 212.8 mg/dL
  IP: 9.6 mg/dL
  K: 3.7 meq/L
  LDH: 158.4 IU/L
  Na: 140.8 meq/L
  PL: 152 mg/dL
  RALB: 3.4 g/dL
  TBIL: 0.2 mg/dL
  TC: 78 mg/dL
  TG: 77.4 mg/dL
  TP: 5.7 g/dL
  gamma-GTP: 1.4 IU/L
6 h
  TERMINAL_BW: 207.7 g
  APTT: 18.6 s
  Bas: 0%
  Eos: 0.6%
  Fbg: 213 mg/dL
  Hb: 13.4 g/dL
  Ht: 38.9%
  Lym: 79.6%
  MCH: 21.3 pg
  MCHC: 34.4%
  MCV: 62.1 fL
  Mono: 1.4%
  Neu: 17.8%
  PT: 12.7 s
  Plat: 127.8 x10_4/uL
  RBC: 626.6 x10_4/ul
  Ret: 7.3%
  WBC: 62.5 x10_2/uL
  KIDNEY_L: 0.9 g
  KIDNEY_R: 0.9 g
  KIDNEY_TOTAL: 1.9 g
  LIVER: 9.2 g
  A/G: 1.6
  ALP: 813 IU/L
  ALT: 32.4 IU/L
  AST: 63.8 IU/L
  BUN: 11.2 mg/dL
  CRE: 0.3 mg/dL
  Ca: 10.8 mg/dL
  Cl: 99.2 meq/L
  DBIL: 0.08 mg/dL
  GLC: 238.4 mg/dL
  IP: 9.7 mg/dL
  K: 3.8 meq/L
  LDH: 132.6 IU/L
  Na: 139.2 meq/L
  PL: 148.6 mg/dL
  RALB: 3.5 g/dL
  TBIL: 0.1 mg/dL
  TC: 84.4 mg/dL
  TG: 33.2 mg/dL
  TP: 5.7 g/dL
  gamma-GTP: 1 IU/L
9 h
  TERMINAL_BW: 207.4 g
  APTT: 19.7 s
  Bas: 0%
  Eos: 0.8%
  Fbg: 223.8 mg/dL
  Hb: 13.1 g/dL
  Ht: 38.5%
  Lym: 77.4%
  MCH: 21.6 pg
  MCHC: 34%
  MCV: 63.5 fL
  Mono: 3.8%
  Neu: 17%
  PT: 12.8 s
  Plat: 127.2 x10_4/uL
  RBC: 605.6 x10_4/ul
  Ret: 7.7%
  WBC: 69.1 x10_2/uL
  KIDNEY_L: 0.9 g
  KIDNEY_R: 0.9 g
  KIDNEY_TOTAL: 1.8 g
  LIVER: 8.7 g
  A/G: 1.6
  ALP: 711.8 IU/L
  ALT: 29.2 IU/L
  AST: 57.6 IU/L
  BUN: 10.2 mg/dL
  CRE: 0.4 mg/dL
  Ca: 10.5 mg/dL
  Cl: 102.8 meq/L
  DBIL: 0.07 mg/dL
  GLC: 220.6 mg/dL
  IP: 9.1 mg/dL
  K: 3.8 meq/L
  LDH: 149.4 IU/L
  Na: 139.8 meq/L
  PL: 165.4 mg/dL
  RALB: 3.4 g/dL
  TBIL: 0.1 mg/dL
  TC: 89.6 mg/dL
  TG: 73 mg/dL
  TP: 5.7 g/dL
  gamma-GTP: 0.8 IU/L
24 h
  TERMINAL_BW: 213.1 g
  APTT: 17.7 s
  Bas: 0%
  Eos: 1%
  Fbg: 218 mg/dL
  Hb: 13.1 g/dL
  Ht: 39.3%
  Lym: 82.4%
  MCH: 21.6 pg
  MCHC: 33.3%
  MCV: 65 fL
  Mono: 2.2%
  Neu: 13.6%
  PT: 12.8 s
  Plat: 129.1 x10_4/uL
  RBC: 605.4 x10_4/ul
  Ret: 6.8%
  WBC: 77.2 x10_2/uL
  KIDNEY_L: 1 g
  KIDNEY_R: 0.9 g
  KIDNEY_TOTAL: 1.9 g
  LIVER: 9.9 g
  A/G: 1.4
  ALP: 990.6 IU/L
  ALT: 32.6 IU/L
  AST: 69.6 IU/L
  BUN: 12.2 mg/dL
  CRE: 0.4 mg/dL
  Ca: 10.5 mg/dL
  Cl: 104.4 meq/L
  DBIL: 0.082 mg/dL
  GLC: 213 mg/dL
  IP: 7.5 mg/dL
  K: 3.8 meq/L
  LDH: 145.4 IU/L
  Na: 141.2 meq/L
  PL: 175.8 mg/dL
  RALB: 3.3 g/dL
  TBIL: 0.1 mg/dL
  TC: 107.4 mg/dL
  TG: 57.4 mg/dL
  TP: 5.7 g/dL
  gamma-GTP: 0.8 IU/L
